Paper doi:10.1101/2022.04.11.487889v1 (biorxiv, 2022)

Target: T1, recombinant human PRDX6 (peroxiredoxin 6) (Homo sapiens, UniProt P30041)
T1 sequence (P30041 1-224): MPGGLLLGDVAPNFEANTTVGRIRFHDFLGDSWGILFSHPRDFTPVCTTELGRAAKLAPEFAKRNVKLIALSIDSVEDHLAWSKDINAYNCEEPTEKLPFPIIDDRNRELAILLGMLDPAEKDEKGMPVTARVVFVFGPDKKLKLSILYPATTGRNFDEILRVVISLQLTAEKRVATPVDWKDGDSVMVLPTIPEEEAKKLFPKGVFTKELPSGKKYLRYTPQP
Test: radioactive PLA2 assay, […]-DPPC liposomes, scintillation counting
Assay type: biochemical

CCN(CC)CCN(Cc1ccc(-c2ccc(C(F)(F)F)cc2)cc1)C(=O)Cn1c(SCc2ccc(F)cc2)nc(=O)c2c1CCC2 [Darapladib]
IC50: ~500 nM
